A short description of this data set: Solubility of isolated product in solvents. The format is physicochemical.

SMILES strings stand for the structures.

The text below walks through data of patent US7521232B2, “Emissive species for clinical imaging” (ICx Nomadics, Inc., priority 2006, dated 2009).

Regarding `Cc1ccc(S(=O)(=O)OCCOCCOc2cc(I)c(OCCOCCOS(=O)(=O)c3ccc(C)cc3)cc2I)cc1`, the “Solubility in DMF” value (DMF) is given as “soluble”. The Solubility in acetone result (acetone) was “soluble”.
`OCCOCCOc1cc(I)c(OCCOCCO)cc1I`: the Solubility in hexanes entry (hexanes) was “Not very soluble”. The Solubility in water entry (water) is on record as “Not very soluble”.
